Reference: US6617342B1, “Hypoglycemic sulfonyl pyrazolones and pyrazolines” (Eli Lilly and Company, priority 1999, dated 2003)

Tested on: obese-diabetic viable yellow (AvY) mice
Assay: Demonstration of hypoglycemic efficacy: blood glucose after 14 days of compound admixed in diet
Assay type: in vivo
Conditions: blood glucose at day 14 as percent of initial (day 0) value, male AvY mice
Experimental: Male obese-diabetic viable yellow (AvY) mice were divided into two groups of 6 each. One group was fed repelletized purina 5008 Chow and the second group was fed repelletized Purina 5008 Chow, admixed with varying doses of the candidate compound. Blood samples were taken before the experiment was initiated and 7 and 14 days after initiation. Body weight and food consumption were monitored. The blood glucose level after 7 or 14 days of treatment was measured and recorded as a percent of the initial value, compared to the untreated control (first) group. The results are presented in the table 1 below; and include the dose of the candidate compound as a weight percent of the amount incorporated into the diet. Also in the table is a representative value for a positive control (a known hypoglycemic agent as disclosed by T. Sohda, K. Mizuno, Y. Momose, H. Ikeda, T. Fujita, and K. Meguro, J. Med. Chem., 1992, 35, 2617) administered in the same way as a candidate compound of the present invention.
BG means blood glucose level; BG0 means blood glucose level at day zero and BG14 means blood glucose level at day 14 accordingly. Takeda “Compound 17” is disclosed by T. Sohda, K. Mizuno, Y. Momose, H. Ikeda, T. Fujita, and K. Meguro, J. Med. Chem., 1992, 35, 2617.

[1] = dose .03 weight percent in diet (Purina 5008 Chow)

Molecule | % BG14 (BGO = 100) [1] | other results
O=c1[nH][nH]cc1S(=O)(=O)c1ccc(OCCc2coc(-c3ccccc3)n2)cc1 [Example 1, 4-(4-[2-(2-Phenyl-4-oxazolyl)ethoxy]phenylsulfonyl)-1H,2H-prazolin-3-one] | 32% | –
O=c1[nH][nH]cc1S(=O)(=O)Cc1ccc(OCCc2coc(-c3ccccc3)n2)cc1 [Example 2, 4-(4-[2-(2-Phenyl-4-oxazolyl)ethoxy]phenylmethylsulfonyl)-1H,2H-prazolin-3-one] | 81% | –
3-(4-(2-Phenyl-4-oxazolyl)ethoxy)phenyl-4-methylsulfonyl-1H-1,2-pyrazoline [Example 3] | – | % BG14 (BGO = 100) (dose .01 weight percent in diet (Purina 5008 Chow)): 72%
O=c1ccn(S(=O)(=O)c2ccc3ccccc3c2)[nH]1 [Example 4, 2-Naphthylsulfonyl-pyrazolin-3-one] | – | % BG14 (BGO = 100) (dose .1 weight percent in diet (Purina 5008 Chow)): 94%
